pIC50: −log10 of the molar value. Structures can show the parent of a compound that is named as a salt.
The compounds below were run against T1, human high molecular weight urokinase (Homo sapiens, UniProt P00749) (assay: Urokinase Direct Assay). Details: inhibitor concentration of 1 mM.
T1 construct: human high molecular weight urokinase; purchased American Diagnostica, Greenwich, Conn
Type: biochemical
Method: (i) A direct chromogenic assay in which urokinase cleaves a synthetic tripeptide p-nitroanilide (pNA) urokinase substrate.
Incubations were carried out at 37° C. for approximately 2 hours or until adequate yellow color developed. Color was quantitated by measuring absorbance at 405 nm (A405) using a Titertek Multiskan MCC/340 MK II microtiter plate spectrophotometer.

| uPA Direct: percentage of residual urokinase activity relative to inhibitor-free controls [%] | Compound |
| --- | --- |
| 1.3 | 4-(7-Amidino-E-hept-1-enyl)benzo[b]thiophene-2-carboxamidine bishydrochloride [Compound 33] |

Same assay, conditions: read-out: uPA Direct: percentage of residual urokinase activity relative to inhibitor-free controls; heading: uPA Direct: percentage of residual urokinase activity relative to inhibitor-free controls; inhibitor concentration of 1 mM

| Compound | residual urokinase activity at 1000 µM [%] |
| --- | --- |
| CCC(C)Cc1cccc2sc(C(=N)N)cc12 (racemic) [Compound 11, 4-([R/S]-2-Methylbutyl)benzo[b]thiophene-2-carboxamidine hydrochloride] | 2.3 |
| N=C(N)c1cc2c(C3CCCO3)cccc2s1 (racemic) [Compound 61, 4-([R,S]-Tetrahydrofuran-2-yl)benzo[b]thiophene-2-carboxamidine hydrochloride] | 0.6 |
| CCC(C)Cc1ccc2sc(C(=N)N)cc2c1 (racemic) [Compound 109, 5-([R/S]-2-Methylbutyl)benzo[b]thiophene-2-carboxamidine hydrochloride] | 6.6 |
| N=C(N)c1cc2c(F)cccc2s1 [Compound 2, 4-Fluorobenzo[b]thiophene-2-carboxamidine hydrochloride] | 7.2 |
| N=C(N)c1cc2c(Cl)cccc2s1 [Compound 3, 4-Chlorobenzo[b]thiophene-2-carboxamidine hydrochloride] | 3 |
| N=C(N)c1cc2c(Br)cccc2s1 [Compound 4, 4-Bromobenzo[b]thiophene-2-carboxamidine hydrochloride] | 0.8 |
| CC(C)c1cccc2sc(C(=N)N)cc12 [Compound 8, 4-(1-Methylethyl)benzo[b]thiophene-2-carboxamidine hydrochloride] | 0.9 |
| N=C(N)c1cc2c(CCC3CC3)cccc2s1 [Compound 14, 4-(2-Cyclopropylethyl)benzo[b]thiophene-2-carboxamidine hydrochloride] | 0.54 |
| N=C(N)c1cc2c(CCc3ccccc3)cccc2s1 [Compound 15, 4-(2-Phenylethyl)benzo[b]thiophene-2-carboxamidine hydrochloride] | 0.35 |
| CC(c1ccccc1)c1cccc2sc(C(=N)N)cc12 (centres unmarked) [Compound 16, 4-(1-Phenylethyl)benzo[b]thiophene-2-carboxamidine hydrochloride] | 1.4 |
| C=C(C)c1cccc2sc(C(=N)N)cc12 [Compound 18, 4-(1-Methylethenyl)benzo[b]thiophene-2-carboxamidine hydrochloride] | 1.3 |
| CCC=Cc1cccc2sc(C(=N)N)cc12 [Compound 20, 4-(E/Z-But-1-enyl)benzo[b]thiophene-2-carboxamidine hydrochloride] | 0.8 |
| CCC(C)=Cc1cccc2sc(C(=N)N)cc12 [Compound 21, 4-(E/Z-2-Methylbut-1-enyl)benzo[b]thiophene-2-carboxamidine hydrochloride] | 1.1 |
| CCC(/C=C/c1cccc2sc(C(=N)N)cc12)CC [Compound 28, 4-(E-3-ethylpent-1-enyl)benzo[b]thiophene-2-carboxamidine hydrochloride] | 0.46 |
| CCCCCCCC/C=C/c1cccc2sc(C(=N)N)cc12 [Compound 31, 4-(E-Dec-1-enyl)benzo[b]thiophene-2-carboxamidine hydrochloride] | 5.2 |
| N=C(N)c1cc2c(/C=C/CCCO)cccc2s1 [Compound 32, 4-(E-5-Hydroxypent-1-enyl)benzo[b]thiophene-2-carboxamidine hydrochloride] | 0.67 |
| N=C(N)c1cc2c(C=CC3CC3)cccc2s1 [Compound 34, 4-(E/Z-2-Cyclopropylethenyl)benzo[b]thiophene-2-carboxamidine. hydrochloride] | 0.46 |
| N=C(N)c1cc2c(C=C(Br)Br)cccc2s1 [Compound 38, 4-(2,2-Dibromoethenyl)benzo[b]thiophene-2-carboxamidine hydrochloride] | 4.8 |
| CC(C)(O)C#Cc1cccc2sc(C(=N)N)cc12 [Compound 42, 4-(3-Hydroxy-3-methylbut-1-ynyl)benzo[b]thiophene-2-carboxamidine hydrochloride] | 0.6 |
| COc1ccc(-c2cccc3sc(C(=N)N)cc23)cc1 [Compound 45, 4-(4-Methoxyphenyl)benzo[b]thiophene-2-carboxamidine hydrochloride] | 6 |
| N=C(N)c1cc2c(-c3ccc([N+](=O)[O-])cc3)cccc2s1 [Compound 46, 4-(4-Nitrophenyl)benzo[b]thiophene-2-carboxamidine hydrochloride] | 1 |

| Compound | residual urokinase activity at 1000 µM [%] |
| --- | --- |
| N=C(N)c1ccc(-c2cccc3sc(C(=N)N)cc23)cc1 [Compound 47, 4-(4-Carboxamidinophenyl)benzo[b]thiophene-2-carboxamidine bis-hydrochloride] | 7.6 |
| N=C(N)c1cc2c(-c3cccc4sc(C(=N)N)cc34)cccc2s1 [Compound 52, Bis-(2-carboxamidinobenzo[b]thien-4-yl) bis-hydrochloride] | 2.7 |
| N=C(N)c1cc2c(C(F)(F)F)cccc2s1 [Compound 54, 4-(Trifluoromethyl)benzo[b]thiophene-2-carboxamidine hydrochloride] | 2.4 |
| N=C(N)c1cc2c(C=O)cccc2s1 [Compound 55, 4-Formylbenzo[b]thiophene-2-carboxamidine hydrochloride] | 4.8 |
| COc1cccc2sc(C(=N)N)cc12 [Compound 57, 4-Methoxybenzo[b]thiophene-2-carboxamidine hydrochloride] | 12 |
| C=CCSc1cccc2sc(C(=N)N)cc12 [Compound 59, 4-(Prop-2-en-1-ylthio)benzo[b]thiophene-2-carboxamidine hydrochloride] | 1.1 |
| N=C(N)c1cc2c(SCc3ccccc3)cccc2s1 [Compound 60, 4-(Benzylthio)benzo[b]thiophene-2-carboxamidine hydrochloride] | 1.3 |
| N=C(N)c1cc2c(N3CCOCC3)cccc2s1 [Compound 62, 4-(1-Morpholino)benzo[b]thiophene-2-carboxamidine hydrochloride] | 3.6 |
| N=C(N)c1cc2c(C#Cc3ccccc3)cccc2s1 [Compound 76, 4-(Phenylethynyl)benzo[b]thiophene-2-carboxamidine hydrochloride] | 1.1 |
| N=C(N)c1cc2c(-c3ccc(-c4ccc5c(c4)OCO5)o3)cccc2s1 [Compound 79, 4-[5-(Benzo-1,3-dioxolan-5-yl)fur-2-yl]benzo[b]thiophene-2-carboxamidine hydrochloride] | 1.5 |
| N=C(N)c1cc2cc(F)ccc2s1 [Compound 101, 5-Fluorobenzo[b]thiophene-2-carboxamidine hydrochloride] | 12.7 |
| N=C(N)c1cc2cc(Cl)ccc2s1 [Compound 102, 5-Chlorobenzo[b]thiophene-2-carboxamidine hydrochloride] | 2.9 |
| Cc1ccc2sc(C(=N)N)cc2c1 [Compound 105, 5-Methylbenzo[b]thiophene-2-carboxamidine hydrochloride] | 3.4 |
| CCc1ccc2sc(C(=N)N)cc2c1 [Compound 106, 5 -Ethylbenzo[b]thiophene-2-carboxamidine hydrochloride] | 3.6 |
| CCCc1ccc2sc(C(=N)N)cc2c1 [Compound 107, 5-Propylbenzo[b]thiophene-2-carboxamidine hydrochloride] | 2.6 |
| CCCCc1ccc2sc(C(=N)N)cc2c1 [Compound 108, 5-Butylbenzo[b]thiophene-2-carboxamidine hydrochloride] | 3.4 |
| CC(C)CCc1ccc2sc(C(=N)N)cc2c1 [Compound 110, 5-(3-Methylbutyl)benzo[b]thiophene-2-carboxamidine hydrochloride] | 4.2 |
| N=C(N)c1cc2cc(CCC3CC3)ccc2s1 [Compound 112, 5-(2-Cyclopropylethyl)benzo[b]thiophene-2-carboxamidine hydrochloride] | 3.3 |
| N=C(N)c1cc2cc(CCO)ccc2s1 [Compound 113, 5-(2-Hydroxyethyl)benzo[b]thiophene-2-carboxamidine hydrochloride] | 2.9 |
| C=C(C)c1ccc2sc(C(=N)N)cc2c1 [Compound 115, 5-(1-Methylethenyl)benzo[b]thiophene-2-carboxamidine hydrochloride] | 1.2 |

These compounds were tested against T2, human two-chain tPA (Homo sapiens, UniProt P00750) (assay: tPA Indirect (Plasminogen-Linked) Assay (tPA Direct Assay result where lower)). Details: tPA Indirect Plasminogen-Linked Assay; in rare cases direct assay result if lower; read-out: tPA IC50.
T2 construct: human two-chain tPA was substituted for urokinase; purchased American Diagnostica
T2 sequence (P00750 311-562 limits assumed): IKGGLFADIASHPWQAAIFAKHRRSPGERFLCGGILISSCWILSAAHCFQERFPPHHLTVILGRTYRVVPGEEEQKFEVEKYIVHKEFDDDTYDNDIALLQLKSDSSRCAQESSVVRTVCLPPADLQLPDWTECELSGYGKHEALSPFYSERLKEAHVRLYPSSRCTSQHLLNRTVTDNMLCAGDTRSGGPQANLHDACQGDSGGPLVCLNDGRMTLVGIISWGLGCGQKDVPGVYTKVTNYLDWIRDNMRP
T2 sequence (P00750 36-310 limits assumed): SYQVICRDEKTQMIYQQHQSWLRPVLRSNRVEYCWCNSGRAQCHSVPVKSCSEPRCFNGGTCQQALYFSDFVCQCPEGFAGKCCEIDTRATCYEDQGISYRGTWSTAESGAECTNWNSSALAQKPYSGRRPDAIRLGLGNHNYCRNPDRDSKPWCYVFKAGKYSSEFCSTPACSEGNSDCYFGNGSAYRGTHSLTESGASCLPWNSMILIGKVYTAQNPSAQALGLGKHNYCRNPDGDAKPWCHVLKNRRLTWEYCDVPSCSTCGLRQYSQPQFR
Type: biochemical
Description: (iv) Both direct and plasminogen-linked pNA assays for tPA, the other mammalian plasminogen activator and the key initiator of blood clot dissolution or fibrinolysis. Since urokinase and tPA share an absolute specificity for the same peptide bond in plasminogen, urokinase inhibitors designed to block cellular invasiveness must be highly specific for urokinase over tPA in order to avoid serious thrombotic side effects secondary to undesired blockage of normal fibrinolysis. […] Spectrozyme tPA®, American Diagnostica) was substituted for urokinase substrate.

| pIC50 | Compound |
| --- | --- |
| 3.32 | Cc1cccc2sc(C(=N)N)cc12 [Compound 6, 4-Methylbenzo[b]thiophene-2-carboxamidine hydrochloride] |

Each compound was assayed against T3, human plasmin (Homo sapiens, UniProt P00747) (assay: Plasmin Assay). Details: read-out: PLASMIN IC50.
T3 construct: plasmin, the potent general protease produced by cleavage of plasminogen by either urokinase or tPA; purchased American Diagnostica
T3 sequence (P00747 581-810 limits assumed): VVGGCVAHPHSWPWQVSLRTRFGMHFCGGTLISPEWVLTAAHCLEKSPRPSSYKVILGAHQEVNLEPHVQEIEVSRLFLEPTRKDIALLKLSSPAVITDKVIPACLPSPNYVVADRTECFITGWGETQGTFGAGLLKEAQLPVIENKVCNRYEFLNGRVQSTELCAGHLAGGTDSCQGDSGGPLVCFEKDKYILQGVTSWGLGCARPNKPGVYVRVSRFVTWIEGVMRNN
T3 sequence (P00747 97-580 limits assumed): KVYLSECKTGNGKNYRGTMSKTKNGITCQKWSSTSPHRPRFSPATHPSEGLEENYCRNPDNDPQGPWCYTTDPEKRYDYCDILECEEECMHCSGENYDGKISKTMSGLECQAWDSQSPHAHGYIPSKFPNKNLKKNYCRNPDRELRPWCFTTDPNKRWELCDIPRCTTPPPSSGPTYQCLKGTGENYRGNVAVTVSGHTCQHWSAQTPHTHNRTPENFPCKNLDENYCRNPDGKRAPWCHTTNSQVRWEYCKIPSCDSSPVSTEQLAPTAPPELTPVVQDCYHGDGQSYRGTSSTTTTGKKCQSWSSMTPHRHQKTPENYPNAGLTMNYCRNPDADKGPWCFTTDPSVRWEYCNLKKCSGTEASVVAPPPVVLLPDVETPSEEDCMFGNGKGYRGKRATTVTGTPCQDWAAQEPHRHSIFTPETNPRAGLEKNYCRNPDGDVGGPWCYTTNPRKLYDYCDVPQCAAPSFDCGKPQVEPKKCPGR
Type: biochemical
Method: (v) A chromogenic pNA assay for plasmin, the potent general protease produced by cleavage of plasminogen by either urokinase or tPA. Although urokinase initiates cellular invasiveness by generating plasmin, the additional importance of plasmin in tPA-mediated fibrinolysis dictates that plasmin itself should be free from inhibition by urokinase inhibitors designed as anti-invasiveness agents. […] All other assay conditions, as well as methods of color quantitation, were carried out as described above for the urokinase direct assay.

| pIC50 | Compound |
| --- | --- |
| 3.06 | Cc1cccc2sc(C(=N)N)cc12 [Compound 6, 4-Methylbenzo[b]thiophene-2-carboxamidine hydrochloride] |

— patent publication US5340833A, “Urokinase inhibitors” (Eisai Co., Ltd., priority 1992, dated 1994)
